Like-named read-outs stand apart in the source and are kept apart here. Blank lines part the entries; values can stand above or below the compound they belong to.
Key:
caspase-3 = biological target: T1, caspase-3 (Homo sapiens, UniProt P42574); assay: Caspase 3 assay (Abcam inhibitor kit); format: biochemical
T1 construct: purchased Abcam ab102491
T1 sequence (P42574 29-175 limits assumed): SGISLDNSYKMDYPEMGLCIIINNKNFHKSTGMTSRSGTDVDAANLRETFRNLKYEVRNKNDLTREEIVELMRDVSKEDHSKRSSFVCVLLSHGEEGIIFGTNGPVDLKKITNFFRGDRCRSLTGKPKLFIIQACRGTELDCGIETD
T1 sequence (P42574 176-277 limits assumed): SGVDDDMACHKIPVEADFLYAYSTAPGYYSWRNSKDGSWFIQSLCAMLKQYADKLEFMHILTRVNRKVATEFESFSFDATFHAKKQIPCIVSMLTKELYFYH
Procedure: Inhibition of caspase 3 was assayed using the Abcam Caspase 3 Inhibitor Drug Detection Kit (ab102491) according to the manufacturer’s protocol.

Cathepsin B = biological target: T2, Cathepsin B (Homo sapiens, UniProt P07858); assay: Cathepsin B assay; format: biochemical; settings: concentrations up to 60 µM
T2 construct: Cathepsin B (human, recombinant, active - BioVision #7580-5); purchased BioVision #7580-5
Procedure: The assay was performed essentially as described by Mendieta et al.[60] with Cathepsin B (human, recombinant, active - BioVision #7580-5), Substrate Z-Arg-Arg-AMC (Sigma C5429) and 1 µM Z-VAD-FMK (Adooq #A12373) as positive inhibition control.
The assay was maintained at 37 °C and monitored every 2 min for 16 min at 348 nm/440 nm (excitation/emission).

[1] = system: SKBR3, MCF7, JIMT1 and MDA-MB-231 cells; assay: Endogenous LC3B-II and p62 western blot in breast cancer cell lines; format: cell-based
MDA-MB-231 cells [2] = assay: Autophagic flux and GABARAP western blot in MDA-MB-231 cells; format: cell-based
Procedure: Corresponding mean LC3B-II/actin values were determined using densitometry analysis; error bars, SEM (n = 3). […] Autophagic flux assay using saturating (40 nM) concentrations of bafilomycin A1 (Baf A1) was applied for the assessment of LC3B-II accumulation. […] Corresponding mean LC3B-II/actin values were determined using densitometry analysis; n = 3; error bars, SEM; *p < 0.05. […] The control ATG4B-KO JIMT-1 cells showing the location of pro-LC3B are in lane 3. Samples were run on a 4–12% Bis-tris gradient gel. The banding pattern shown is representative of 3 independent experiments. […] Addition of bafilomycin A1 (Baf A1; 40 nM) or Wortmannin (1 µM) during the final 4 h of treatment had no effect. The GABARAP-II/actin values were determined using densitometry analysis; n = 3; error bars, SEM; *p < 0.05, Student’s t-test.

[3] = system: MDA-MB-231 cells stably expressing mRFP-EGFP-LC3B; assay: mRFP-EGFP-LC3B puncta assay of starvation-induced autophagic flux; format: cell-based; settings: 120 µM for 48 hours; starved conditions
Source text: Since GFP fluorescence is quenched in acid environments, but red fluorescence is preferentially retained, autolysosomes are indicated by red puncta whereas autophagosomes are indicated by yellow puncta, or the overlap of both red and green fluorescence. In starved control scramble-siRNA treated cells, abundant red puncta were detected as expected, indicating high levels of autophagic flux (Fig. 6a). […] To determine if LV-320 affects lysosomal degradation, we performed a DQ-BSA assay. DQ-Red BSA is a self-quenched fluorescent substrate that enters the cell through endocytosis and fluoresces upon lysosomal degradation.
For each experiment, media was replenished every day after initial plating and before treatment. At the end of the experiment the cells were fixed in 4% PFA for 20 minutes and then rinsed with PBS. Cells were then mounted using SlowFade Gold Antifade with DAPI (Invitrogen). […] For each treatment, the number of green, red and yellow (i.e. red/green overlap where applicable) puncta per cell were determined for at least 100 cells. […] LTR fluorescent intensity was measured by the mean gray value from the unadjusted images taken with the same microscope settings of the LTR channel and subtracting the mean background using Image J 1.45 s (https://imagej.nih.gov/ij/) with cells counted by DRAQ5 positive nuclei.

SKBR3 cells = assay: DQ-BSA assay for lysosomal activity; format: cell-based; settings: CQ 20 µM; LV-320 75 and 100 µM
Procedure: A DQ-BSA assay was used to determine lysosomal degradative activity as described. […] All samples contained equal concentration of DMSO (0.5%) in regular growth media (Gibco DMEM + 10% FBS + 20 mM HEPES + 1X NEAA). […] Data were analyzed using FlowJo software.

[4] = Pharmacokinetic assay, oral dosing; format: in vivo, BL/6 mice
Procedure: Blood samples (approximately 50 µL) were collected at predetermined intervals. Blood samples were placed into tubes containing sodium heparin and centrifuged at 10000 × g for 14 min to obtain the plasma samples.

[5] = In vivo autophagy assay in GFP-LC3 mice; settings: female, GFP-LC3, mouse, 4 h after last dose, 100 or 200 mg/kg oral, 3 doses over two days
Procedure: (§1) GFP–LC3 mice were kindly provided by Dr. Mizushima (Tokyo Medical and Dental University, Japan)[67]. […]. The treatment was given by oral gavage. Four hours after the last dose the mice were terminated, blood samples were collected and the livers were harvested for the analysis.
(§2) After treatment, mouse liver tissues were collected and fixed with 4% paraformaldehyde dissolved in 0.1 M Na-phosphate buffer (pH 7.4) for 4 h, incubated overnight with 15% sucrose/PBS, and 30% sucrose/PBS for 4 h. Tissues were then embedded in OCT compound (Tissue-Tek) and stored at −80 °C. Liver OCT blocks were sectioned into 6 μm slides and countered stained with DAPI-containing mounting medium. Five randomly selected fields from each sample were examined (scorer was blinded) under 40x oil lens of the confocal microscope. Z-stack images were taken from each field with fixed settings at the laser power and exposure time for all samples. Green for GFP-LC3 and blue for nucleus (DAPI). The percentage of GFP-LC3 puncta positive cells from 5 fields were calculated for each sample; and 6 samples from each treatment condition were grouped for statistical analysis. Six animals per treatment group were used based on results in previous studies validating this method as a way to quantify GFP-LC3 puncta.

GFP-LC3 mice = assay: In vivo autophagy assay in GFP-LC3 mice; settings: 3 doses
Procedure: as §1, §2

JIMT-1 cells = assay: LC3B-II versus pro-LC3B western blot in JIMT-1 cells; settings: 75 µM; 24 h
Procedure: To further confirm that the increase in LC3B-II represented a block in autophagy flux, the levels of endogenous LC3B-II were quantitated in the presence and absence of bafilomycin A1 (Baf A1).
Membranes were blocked in 2% milk and incubated in primary antibodies overnight at 4 °C. Primary antibodies were diluted in 2% milk and included: p62 (1:1000; Sigma, ref: P0067), LC3B (1:1000; Abcam, ref: ab48394), GABARAP (1:1000; Abcam, ref: ab109364), beta-actin (1:10000; Abcam, ref: ab6276), and vinculin (1:1000; Abcam, ref: ab129002). Membranes were then washed with 1X PBS-T (0.1%), incubated in HRP-conjugated secondary antibodies and detected using Bio-Rad Clarity Western ECL substrate and the electronic Bio-Rad ChemiDoc MP System. Densitometry was performed using Image Lab software (Bio-Rad), and the relative levels of LC3B-II were determined by first normalizing to the actin loading controls then to the DMSO controls.

osteosarcoma xenograft = system: osteosarcoma xenograft; design: method as in PMID 25483883; settings: dosed daily at 100 mg/kg; cited from earlier work
LC3 = system: LC3; design: method as in PMID 25483883; settings: cited from earlier work
ATG4B = biological target: T3, ATG4B (Homo sapiens, UniProt Q9Y4P1); assay: Fluorimetric ATG4B enzymatic assay with fluorescent peptide substrate pim-FG-PABA-AMC; format: biochemical; settings: up to 175 µM
T3 sequence (Q9Y4P1 1-393): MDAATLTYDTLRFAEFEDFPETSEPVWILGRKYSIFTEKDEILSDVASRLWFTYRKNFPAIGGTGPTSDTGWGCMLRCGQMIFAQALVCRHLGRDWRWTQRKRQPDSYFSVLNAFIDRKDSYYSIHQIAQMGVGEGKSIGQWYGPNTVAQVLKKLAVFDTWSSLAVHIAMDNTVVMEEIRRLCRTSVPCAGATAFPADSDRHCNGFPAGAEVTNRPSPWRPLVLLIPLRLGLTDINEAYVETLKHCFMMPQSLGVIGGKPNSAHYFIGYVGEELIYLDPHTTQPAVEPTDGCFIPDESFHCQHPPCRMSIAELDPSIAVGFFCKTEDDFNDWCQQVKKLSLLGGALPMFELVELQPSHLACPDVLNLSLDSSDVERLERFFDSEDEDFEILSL
Procedure: 100 μL of immobilized TCEP in deionized water was diluted in 2.50 mL of buffer (50 mM Tris, 35 mM NaCl, pH = 8). The sample was centrifuged at 10,000 × g during 1 min. The supernatant was removed. This operation was done two more times. […] The solution was incubated on a carousel at 4 °C for 1 h. This solution was then diluted with 2.06 mL of buffer (50 mM Tris, 35 mM NaCl, 5 mM EDTA, pH 8), centrifuged at 10,000 × g during 1 min and the supernatant, containing the activated ATG4B (1 µM), was kept. A 96-well all-black plate was loaded where each well was charged with 55 µL of inhibitor at different concentrations (0 µM to 100 µM or 200 µM) in buffer/DMSO 41:3 (v/v) and 20 μL of enzyme or buffer were dispensed using a dispenser (Biotek). Plate was incubated for 30 min. A single read was done using excitation and emission wavelengths of 350/450 nm. 25 µL of peptide substrate (pim-FG-PABA-AMC)[52] (final assay concentration 100 µM) was dispensed using a dispenser (Biotek). Experiments were performed in triplicate except when it is mentioned. Fluorescent reads were performed using the Synergy 4 (Biotek) at 25 °C using excitation and emission wavelengths of 350/450 nm every 15 min for 2 h.

MDA-MB-231 cells [6] = assay: Lysotracker Red fluorescence assay; format: cell-based; settings: CQ 40 µM, LV-320 120 µM; 24 hours
Procedure: For each experiment, media was replenished every day after initial plating and before treatment. At the end of the experiment the cells were fixed in 4% PFA for 20 minutes and then rinsed with PBS. Cells were then mounted using SlowFade Gold Antifade with DAPI (Invitrogen). For Lysotracker Red®(LTR) experiments, parental MDA-MB-231 cells were incubated with 50 µM of LTR for 5 min in the dark CO2 incubator, rinsed with PBS and fixed with 4% PFA for 20 min. Fixed cells were incubated in DRAQ5 (1:500) in PBS and 100 µg/mL RNaseA for 10 minutes at room temperature before being mounted with SlowFade Gold Antifade (Invitrogen). Leica TCS SP8 inverted confocal microscope with a Leica HC PL APO 63x/1.40 oil objective and LAS AF software (Leica) were used for imaging the cells. For each treatment, the number of green, red and yellow (i.e. red/green overlap where applicable) puncta per cell were determined for at least 100 cells. Puncta counting was performed using the OpenCV Python package; a contours discovery algorithm[66] was applied to images pre-processed by filtering colors and applying a Gaussian filter and adaptive threshold.

Compound: O=C(O)CCSC(SCCc1ccccc1)c1ccc(/C=C/c2ccnc3cc(Cl)ccc23)cc1 (stereo not drawn) [LV-320]
inhibition at 60 µM (caspase-3): 6% | inhibition of cathepsin B (Cathepsin B): 32% | p62 level [1]: dose-dependent increase | concentration at which LC3B-II changes first detected ([1]; all four cell lines): 50 to 75 µM | endogenous LC3B-II levels ([1]; all four cell lines): dose-dependent increase | GABARAP levels (MDA-MB-231 cells [2]; 120 µM for 24 h): significant decrease | autophagic flux (LC3B-II with and without Baf A1) (MDA-MB-231 cells [2]; 120 µM for 48 hours, Baf A1 40 nM): blocks autophagic flux | formation of red puncta (autolysosomes) [3]: significantly blocked | DQ-Red BSA fluorescence (lysosomal degradation) (SKBR3 cells): no significant effect | maximum concentration in plasma ([4]; 100 mg/kg oral): 210 ± 50 µM | maximum concentration in plasma ([4]; 200 mg/kg oral): 280 ± 20 µM | Tmax ([4]; female, BL/6, mouse, plasma, 100 and 200 mg/kg oral, read-out: time of maximum concentration): 1 h | dose proportionality of blood levels ([4]; oral 30, 100 and 200 mg/kg): dose proportional up to 100 mg/kg but somewhat less so at 200 mg/kg | concentration at 4 h ([5]; blood, read-out: terminal blood levels): 169 ± 23 µM | concentration at 4 h ([5]; liver, read-out: liver levels): 104 ± 26 µM | toxicity of treatment regimens (GFP-LC3 mice; 100 and 200 mg/kg oral): did not cause significant toxicity | GFP-LC3 puncta in liver versus controls (GFP-LC3 mice; 100 or 200 mg/kg oral): significantly greater accumulation | LC3B-II protein in liver versus vehicle controls (GFP-LC3 mice; 100 or 200 mg/kg oral): increased | LC3B-II versus pro-LC3B accumulation (JIMT-1 cells): accumulation of LC3B-II but not pro-LC3B

Compound: S=C(Nc1ccccn1)c1ccccn1 [NSC 185058, N-pyridin-2-ylpyridine-2-carbothioamide]
tumor growth (osteosarcoma xenograft): ability to inhibit tumor growth | activation and lipidation of LC3 in cells (LC3): inhibiting activation and lipidation of LC3 in cells

inhibition of activity of purified ATG4B (ATG4B): did not show significant inhibition
Compound: CCN(CC)CCCC(C)Nc1ccnc2cc(Cl)ccc12 (stereo not drawn) [chloroquine, reference compound]
LTR fluorescence intensity relative to vehicle (MDA-MB-231 cells [6]): statistically significant decrease | DQ-Red BSA fluorescence (lysosomal degradation) (SKBR3 cells): significantly reduced

From paper PMC6076261, “A new quinoline-based chemical probe inhibits the autophagy-related cysteine protease ATG4B” (Scientific Reports, 2018)
